Test results reported in ChEMBL document CHEMBL1201862, “PubChem BioAssay data set” (2004).
Calls of active or inactive are those of the source.

Key:
[1] = target: T1, Heat shock factor protein 1 (Mus musculus, UniProt P38532); test: inhibition of MG132-induced HSE-luciferase signal, confirmation, cell-based, NIH3T3, luminescence, dose retest (AID 2382); assay type: functional;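 note: NIH3T3 fibroblasts with HSF1-driven luciferase reporter stressed by proteasome inhibitor MG132; luminescence from HSF1-driven luciferase expression after 8 hours of MG132 stress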
T1 sequence (P38532 whole entry): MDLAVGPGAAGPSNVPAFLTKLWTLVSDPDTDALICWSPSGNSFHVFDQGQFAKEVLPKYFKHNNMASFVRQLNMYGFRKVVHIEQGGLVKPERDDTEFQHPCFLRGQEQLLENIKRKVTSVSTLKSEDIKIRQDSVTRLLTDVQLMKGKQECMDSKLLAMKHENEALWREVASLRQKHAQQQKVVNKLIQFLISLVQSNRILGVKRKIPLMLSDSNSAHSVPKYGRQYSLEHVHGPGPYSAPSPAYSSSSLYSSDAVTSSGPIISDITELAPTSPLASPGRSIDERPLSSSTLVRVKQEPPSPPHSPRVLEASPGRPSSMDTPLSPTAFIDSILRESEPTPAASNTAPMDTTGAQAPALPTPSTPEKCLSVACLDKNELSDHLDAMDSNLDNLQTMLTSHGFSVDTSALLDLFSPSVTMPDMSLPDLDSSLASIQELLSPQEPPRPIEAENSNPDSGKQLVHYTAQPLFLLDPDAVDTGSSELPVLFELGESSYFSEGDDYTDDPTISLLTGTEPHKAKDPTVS

[2] = target: Paired box protein Pax-8 (Homo sapiens, UniProt Q06710); test: inhibitors of PAX8-driven TPO luciferase reporter, dose response, RMG-I cells, cherry-pick (AID 687027); assay type: functional, cell-based;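 note: luciferase reporter driven by Pax8 target thyroperoxidase promoter measured by SteadyGlo luminescence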
[3] = system: Vero; test: cells; assay type: functional; settings: Chlorocebus sabaeus
[4] = target: E3 ubiquitin-protein ligase Mdm2 (Homo sapiens, UniProt Q00987); test: enhancers of MDM2-luciferase reporter signal, concentration-effect titration, project on inhibitors of MDM2 ubiquitin ligase, cellular assay, luminescent readout, 384-well plate format (AID 1394); assay type: functional;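 note: MDM2 E3 inhibitors raise luminescence so EC50 is for signal enhancement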
[5] = target: DNA dC->dU-editing enzyme APOBEC-3G (Homo sapiens, UniProt Q9HC16); test: Dose Response confirmation of small molecule APOBEC3G DNA Deaminase Inhibitors via a fluorescence-based single-stranded DNA deaminase assay. [Related pubchem assays (depositor defined):AID493012, AID493028]; assay type: functional
[6] = target: T2, Orexin receptor type 2 (Homo sapiens, UniProt O43614); test: Counterscreen assay for antagonists of the orexin 1 receptor (OX1R; HCRTR1): Homogeneous Time Resolved Fluorescence (HTRF)-based cell-based dose response assay for antagonists of the orexin 2 receptor (OX2R; HCRTR2), run by assay provider.; assay type: functional
T2 sequence (O43614 whole entry): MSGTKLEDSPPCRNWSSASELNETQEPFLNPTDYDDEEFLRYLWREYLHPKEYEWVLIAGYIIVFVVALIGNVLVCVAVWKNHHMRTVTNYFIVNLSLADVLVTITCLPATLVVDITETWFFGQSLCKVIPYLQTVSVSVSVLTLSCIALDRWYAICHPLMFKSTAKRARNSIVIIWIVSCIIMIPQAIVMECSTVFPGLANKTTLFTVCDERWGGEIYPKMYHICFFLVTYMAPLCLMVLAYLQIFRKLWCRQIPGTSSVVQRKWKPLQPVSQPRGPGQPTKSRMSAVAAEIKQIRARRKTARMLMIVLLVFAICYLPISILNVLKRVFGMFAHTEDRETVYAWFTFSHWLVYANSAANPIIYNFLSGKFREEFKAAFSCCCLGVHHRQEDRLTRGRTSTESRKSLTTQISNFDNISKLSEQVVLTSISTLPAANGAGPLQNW

[7] = system: CHO-K1; test: (§1) Counterscreen for antagonists of the orexin 1 receptor (OX1R; HCRTR1): Homogeneous time resolved fluorescence (HTRF)-based cell-based dose response assay to identify antagonists of the parental CHO-K1 cell line. [Related pubchem assays (depositor defined):AID434989, AID435008, AID463079, AID485270, AID492963, AID492964, AID492965, AID493232, AID504699, AID504701]; assay type: functional; settings: Cricetulus griseus
[8] = as §1, with “Fluorescence-based” for “Homogeneous time resolved fluorescence (HTRF)-based”, “cell-based high throughput” for “cell-based”, “CHO” for “CHO-K1”; assay type: functional
[9] = target: T3, Orexin/Hypocretin receptor type 1 (Homo sapiens, UniProt O43613); test: (§2) Fluorescence-based cell-based high throughput dose response assay for antagonists of the orexin 1 receptor (OX1R; HCRTR1). [Related pubchem assays (depositor defined):AID434989, AID435008, AID463079, AID485270, AID492963, AID492964, AID492965, AID493232, AID504717, AID504718]; assay type: functional
T3 sequence (O43613 whole entry): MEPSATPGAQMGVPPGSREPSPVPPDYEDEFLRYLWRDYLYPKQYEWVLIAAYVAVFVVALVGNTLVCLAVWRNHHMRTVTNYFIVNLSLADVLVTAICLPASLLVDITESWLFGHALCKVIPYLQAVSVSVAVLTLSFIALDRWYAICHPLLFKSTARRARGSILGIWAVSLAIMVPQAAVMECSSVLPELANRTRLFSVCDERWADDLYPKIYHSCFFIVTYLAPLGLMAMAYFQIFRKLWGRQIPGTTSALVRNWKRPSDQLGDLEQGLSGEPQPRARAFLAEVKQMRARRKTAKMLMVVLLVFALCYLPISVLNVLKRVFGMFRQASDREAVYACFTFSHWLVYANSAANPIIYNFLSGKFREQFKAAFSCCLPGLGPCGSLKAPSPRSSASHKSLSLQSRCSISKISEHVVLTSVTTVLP

[10] = target: T3, Orexin/Hypocretin receptor type 1; test: as §2, with “Homogeneous Time Resolved Fluorescence (HTRF)-based” for “Fluorescence-based”; assay type: functional
[11] = target: Ubiquitin carboxyl-terminal hydrolase BAP1 (Homo sapiens, UniProt Q92560); test: BAP1 deubiquitinase inhibitors, dose response, biochemical (AID 714); assay type: functional
[12] = target: T2, Orexin receptor type 2; test: Counterscreen assay for antagonists of the orexin 1 receptor (OX1R; HCRTR1): Fluorescence-based cell-based dose response assay for antagonists of the orexin 2 receptor (OX2R; HCRTR2), run by assay provider.; assay type: functional
[13] = target: T4, Aminopeptidase N (Plasmodium falciparum FcB1/Columbia, UniProt O96935); test: P. falciparum M1AAP inhibitors, biochemical, fluorogenic H-Leu-NHMec substrate, 1536-well (AID 1445); design: species or system Plasmodium falciparum 3D7, 3D7
T4 sequence (O96935 whole entry): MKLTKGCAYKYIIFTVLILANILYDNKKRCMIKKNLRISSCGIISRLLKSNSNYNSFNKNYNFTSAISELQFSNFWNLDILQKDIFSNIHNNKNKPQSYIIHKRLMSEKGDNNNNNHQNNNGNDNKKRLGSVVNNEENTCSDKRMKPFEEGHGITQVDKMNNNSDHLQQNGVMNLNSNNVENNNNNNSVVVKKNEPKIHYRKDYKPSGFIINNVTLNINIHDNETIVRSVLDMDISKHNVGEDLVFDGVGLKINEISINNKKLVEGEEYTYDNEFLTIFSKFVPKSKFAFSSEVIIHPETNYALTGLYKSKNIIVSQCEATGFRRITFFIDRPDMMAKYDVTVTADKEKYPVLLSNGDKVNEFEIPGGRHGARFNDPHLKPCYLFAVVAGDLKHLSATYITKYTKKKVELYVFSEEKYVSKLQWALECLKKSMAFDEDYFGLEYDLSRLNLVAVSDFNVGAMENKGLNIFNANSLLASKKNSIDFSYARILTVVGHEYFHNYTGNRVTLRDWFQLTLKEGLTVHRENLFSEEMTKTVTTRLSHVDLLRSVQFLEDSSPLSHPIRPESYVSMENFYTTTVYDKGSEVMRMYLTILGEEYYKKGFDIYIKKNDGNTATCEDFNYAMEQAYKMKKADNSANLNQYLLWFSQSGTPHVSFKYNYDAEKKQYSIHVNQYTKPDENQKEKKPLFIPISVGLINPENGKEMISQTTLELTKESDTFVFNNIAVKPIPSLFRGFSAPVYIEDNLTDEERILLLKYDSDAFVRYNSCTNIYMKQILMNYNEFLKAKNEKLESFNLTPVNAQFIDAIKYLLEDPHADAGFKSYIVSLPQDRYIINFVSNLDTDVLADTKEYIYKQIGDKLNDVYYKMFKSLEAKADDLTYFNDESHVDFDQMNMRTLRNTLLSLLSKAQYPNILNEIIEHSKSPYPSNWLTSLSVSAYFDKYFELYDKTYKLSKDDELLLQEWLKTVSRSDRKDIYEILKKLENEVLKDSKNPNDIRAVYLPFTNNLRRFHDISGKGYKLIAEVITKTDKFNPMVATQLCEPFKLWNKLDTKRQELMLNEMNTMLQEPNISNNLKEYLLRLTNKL

[14] = target: Bifunctional protein GlmU (Mycobacterium tuberculosis, UniProt P9WMN3); test: Inhibitors of Mycobacterial Glucosamine-1-phosphate acetyl transferase (GlmU). Secondary screen.; design: species or system Mycobacterium tuberculosis H37Rv
[15] = target: Genome polyprotein (dengue virus type 2, UniProt P29990); test: Dengue-2 NS5 methyltransferase inhibitors, primary screen, biochemical, confirmation dose response (AID 588689); assay type: functional
[16] = target: Keap1/Nrf2 (Homo sapiens, UniProt Q14145); test: Keap1-Nrf2 protein-protein interaction inhibitors, dose response, biochemical, fluorescence polarization, cherry-picked samples (AID 588683)
[17] = target: E3 ubiquitin-protein ligase XIAP (Homo sapiens, UniProt P98170); test: Counter Screen using XIAP-Bir3 for Chemical Antagonists of Bir1/2 domains of IAP-family anti-apoptotic proteins. [Related pubchem assays (depositor defined):AID1018, AID1449, AID1514, AID1638, AID1749, AID1750, AID488957, AID488963]
[18] = target: Large T antigen (Simian virus 40, UniProt P03070); assay type: functional, Betapolyomavirus macacae;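 note: Confirmatory-stage PubChem screen for compounds that inhibit SV40 T antigen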
[19] = target: T5, Histone-lysine N-methyltransferase NSD2 (Homo sapiens, UniProt O96028); assay type: biochemical
T5 sequence (O96028 whole entry): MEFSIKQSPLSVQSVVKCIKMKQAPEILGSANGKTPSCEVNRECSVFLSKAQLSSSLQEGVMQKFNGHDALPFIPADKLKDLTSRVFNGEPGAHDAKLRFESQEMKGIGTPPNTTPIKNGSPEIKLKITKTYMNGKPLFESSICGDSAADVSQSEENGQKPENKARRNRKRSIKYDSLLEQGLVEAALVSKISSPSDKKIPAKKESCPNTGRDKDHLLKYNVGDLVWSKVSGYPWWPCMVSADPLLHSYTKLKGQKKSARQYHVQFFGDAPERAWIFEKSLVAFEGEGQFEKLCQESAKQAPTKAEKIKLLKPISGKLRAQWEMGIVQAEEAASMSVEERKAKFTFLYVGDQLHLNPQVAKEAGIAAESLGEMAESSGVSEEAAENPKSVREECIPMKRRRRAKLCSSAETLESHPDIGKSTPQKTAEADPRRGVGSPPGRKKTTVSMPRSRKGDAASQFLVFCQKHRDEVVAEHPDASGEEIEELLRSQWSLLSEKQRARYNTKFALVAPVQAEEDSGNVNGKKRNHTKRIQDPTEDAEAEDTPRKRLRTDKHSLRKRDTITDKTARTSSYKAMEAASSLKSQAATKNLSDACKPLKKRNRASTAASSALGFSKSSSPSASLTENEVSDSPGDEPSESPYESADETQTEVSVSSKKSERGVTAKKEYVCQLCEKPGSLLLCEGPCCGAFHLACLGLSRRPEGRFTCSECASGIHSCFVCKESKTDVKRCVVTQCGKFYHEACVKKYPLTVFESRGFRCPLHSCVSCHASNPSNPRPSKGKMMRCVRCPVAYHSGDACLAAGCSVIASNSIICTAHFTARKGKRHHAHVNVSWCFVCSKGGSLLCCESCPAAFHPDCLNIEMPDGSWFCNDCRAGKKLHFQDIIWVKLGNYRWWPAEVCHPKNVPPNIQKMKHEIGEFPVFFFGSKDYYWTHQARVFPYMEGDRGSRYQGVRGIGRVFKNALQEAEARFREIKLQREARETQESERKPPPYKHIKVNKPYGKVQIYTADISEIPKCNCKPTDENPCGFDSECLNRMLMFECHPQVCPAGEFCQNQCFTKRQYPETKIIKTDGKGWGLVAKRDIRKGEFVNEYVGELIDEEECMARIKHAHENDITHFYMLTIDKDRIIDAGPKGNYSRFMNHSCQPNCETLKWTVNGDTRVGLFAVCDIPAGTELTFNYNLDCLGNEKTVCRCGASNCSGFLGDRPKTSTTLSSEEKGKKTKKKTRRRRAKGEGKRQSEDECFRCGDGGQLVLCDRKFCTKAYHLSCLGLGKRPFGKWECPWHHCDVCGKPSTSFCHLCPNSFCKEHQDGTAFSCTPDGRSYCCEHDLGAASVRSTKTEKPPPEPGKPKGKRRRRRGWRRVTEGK

[20] = target: T6, Tyrosine-protein phosphatase non-receptor type 7 (Homo sapiens, UniProt P35236); test: inhibitors of human HePTP phosphatase, […], biochemical, absorbance, leukemia target (AID 521); assay type: functional
T6 sequence (P35236 whole entry): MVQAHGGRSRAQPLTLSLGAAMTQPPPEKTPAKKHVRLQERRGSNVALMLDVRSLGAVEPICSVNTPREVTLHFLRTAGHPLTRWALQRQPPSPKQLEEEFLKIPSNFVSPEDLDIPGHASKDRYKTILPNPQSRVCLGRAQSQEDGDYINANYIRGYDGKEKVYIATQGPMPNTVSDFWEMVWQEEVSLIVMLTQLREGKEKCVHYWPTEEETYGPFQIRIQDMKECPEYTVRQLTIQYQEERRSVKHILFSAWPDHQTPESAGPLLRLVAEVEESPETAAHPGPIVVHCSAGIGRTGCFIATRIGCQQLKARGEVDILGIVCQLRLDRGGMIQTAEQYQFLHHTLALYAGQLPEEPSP

Sequence of Large T antigen (P03070 whole entry): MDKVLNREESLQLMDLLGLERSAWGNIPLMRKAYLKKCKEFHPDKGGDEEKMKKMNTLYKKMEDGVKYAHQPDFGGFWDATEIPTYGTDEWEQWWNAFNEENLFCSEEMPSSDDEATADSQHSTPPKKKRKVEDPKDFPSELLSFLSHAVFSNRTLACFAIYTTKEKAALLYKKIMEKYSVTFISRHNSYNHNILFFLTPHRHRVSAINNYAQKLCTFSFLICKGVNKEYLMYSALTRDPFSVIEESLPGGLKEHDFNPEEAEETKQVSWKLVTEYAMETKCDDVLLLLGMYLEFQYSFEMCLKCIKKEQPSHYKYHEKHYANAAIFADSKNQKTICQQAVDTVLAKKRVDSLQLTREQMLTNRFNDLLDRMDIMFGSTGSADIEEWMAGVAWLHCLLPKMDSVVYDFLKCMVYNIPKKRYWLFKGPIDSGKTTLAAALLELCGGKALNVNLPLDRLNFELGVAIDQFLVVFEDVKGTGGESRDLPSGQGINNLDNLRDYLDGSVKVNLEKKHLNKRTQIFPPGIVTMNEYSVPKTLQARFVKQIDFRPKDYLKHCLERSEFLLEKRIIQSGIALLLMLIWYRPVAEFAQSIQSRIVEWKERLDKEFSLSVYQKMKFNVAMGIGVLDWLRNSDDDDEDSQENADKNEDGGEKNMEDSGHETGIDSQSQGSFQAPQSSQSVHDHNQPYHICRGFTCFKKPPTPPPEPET
Sequence of E3 ubiquitin-protein ligase Mdm2 (Q00987 whole entry): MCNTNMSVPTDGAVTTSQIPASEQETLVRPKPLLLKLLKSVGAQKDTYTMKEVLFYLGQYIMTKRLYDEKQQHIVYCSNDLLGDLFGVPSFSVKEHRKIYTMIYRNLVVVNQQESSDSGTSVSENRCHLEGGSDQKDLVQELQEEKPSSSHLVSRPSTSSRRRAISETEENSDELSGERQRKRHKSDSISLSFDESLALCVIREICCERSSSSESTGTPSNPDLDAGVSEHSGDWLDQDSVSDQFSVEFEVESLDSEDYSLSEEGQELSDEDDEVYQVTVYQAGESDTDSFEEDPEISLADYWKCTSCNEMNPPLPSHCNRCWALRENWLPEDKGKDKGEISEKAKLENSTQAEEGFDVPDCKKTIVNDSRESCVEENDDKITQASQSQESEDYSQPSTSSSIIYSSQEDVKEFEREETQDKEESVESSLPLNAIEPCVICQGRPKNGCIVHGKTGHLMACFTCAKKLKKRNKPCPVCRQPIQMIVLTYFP
Sequence of Ubiquitin carboxyl-terminal hydrolase BAP1 (Q92560 whole entry): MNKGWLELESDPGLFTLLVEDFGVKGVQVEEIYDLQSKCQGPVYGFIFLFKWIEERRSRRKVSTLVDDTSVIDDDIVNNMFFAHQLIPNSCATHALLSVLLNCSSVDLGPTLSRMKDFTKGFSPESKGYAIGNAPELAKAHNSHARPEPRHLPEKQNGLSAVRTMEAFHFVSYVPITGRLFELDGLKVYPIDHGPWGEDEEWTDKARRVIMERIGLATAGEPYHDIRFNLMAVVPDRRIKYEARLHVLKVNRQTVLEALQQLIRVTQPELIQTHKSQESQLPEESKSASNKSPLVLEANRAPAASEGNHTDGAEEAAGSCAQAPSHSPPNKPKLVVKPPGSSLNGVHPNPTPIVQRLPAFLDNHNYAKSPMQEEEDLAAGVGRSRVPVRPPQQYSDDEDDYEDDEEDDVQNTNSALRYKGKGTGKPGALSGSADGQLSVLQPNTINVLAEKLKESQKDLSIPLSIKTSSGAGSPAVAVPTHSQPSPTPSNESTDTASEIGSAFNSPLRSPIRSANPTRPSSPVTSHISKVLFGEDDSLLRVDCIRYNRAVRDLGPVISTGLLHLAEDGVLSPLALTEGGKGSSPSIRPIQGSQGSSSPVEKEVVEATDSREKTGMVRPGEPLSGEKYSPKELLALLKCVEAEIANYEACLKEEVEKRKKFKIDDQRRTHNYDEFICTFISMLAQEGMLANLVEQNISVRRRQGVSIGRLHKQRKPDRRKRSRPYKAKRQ
Sequence of Paired box protein Pax-8 (Q06710 whole entry): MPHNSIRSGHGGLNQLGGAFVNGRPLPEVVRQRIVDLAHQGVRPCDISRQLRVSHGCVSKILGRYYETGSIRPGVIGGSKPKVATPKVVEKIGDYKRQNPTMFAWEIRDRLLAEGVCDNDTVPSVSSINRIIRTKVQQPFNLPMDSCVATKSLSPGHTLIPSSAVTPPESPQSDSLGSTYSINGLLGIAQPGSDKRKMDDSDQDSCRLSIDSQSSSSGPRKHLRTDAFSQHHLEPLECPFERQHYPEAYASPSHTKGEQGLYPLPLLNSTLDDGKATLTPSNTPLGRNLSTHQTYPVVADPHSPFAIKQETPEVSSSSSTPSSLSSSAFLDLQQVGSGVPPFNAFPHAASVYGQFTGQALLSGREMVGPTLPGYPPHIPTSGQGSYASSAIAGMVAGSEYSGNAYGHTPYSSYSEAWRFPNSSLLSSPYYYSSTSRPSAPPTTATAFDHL
Sequence of DNA dC->dU-editing enzyme APOBEC-3G (Q9HC16 whole entry): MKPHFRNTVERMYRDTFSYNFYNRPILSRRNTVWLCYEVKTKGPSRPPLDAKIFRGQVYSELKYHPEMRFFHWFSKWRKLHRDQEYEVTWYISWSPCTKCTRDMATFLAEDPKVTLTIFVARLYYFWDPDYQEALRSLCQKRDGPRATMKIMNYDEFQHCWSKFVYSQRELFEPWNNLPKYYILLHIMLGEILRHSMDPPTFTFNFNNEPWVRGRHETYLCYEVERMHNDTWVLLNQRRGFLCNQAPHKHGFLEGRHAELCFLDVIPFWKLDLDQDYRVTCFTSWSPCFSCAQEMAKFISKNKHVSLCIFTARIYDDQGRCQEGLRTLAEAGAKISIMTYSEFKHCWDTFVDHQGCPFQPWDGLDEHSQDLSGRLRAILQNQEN
Sequence of Keap1/Nrf2 (Q16236 whole entry): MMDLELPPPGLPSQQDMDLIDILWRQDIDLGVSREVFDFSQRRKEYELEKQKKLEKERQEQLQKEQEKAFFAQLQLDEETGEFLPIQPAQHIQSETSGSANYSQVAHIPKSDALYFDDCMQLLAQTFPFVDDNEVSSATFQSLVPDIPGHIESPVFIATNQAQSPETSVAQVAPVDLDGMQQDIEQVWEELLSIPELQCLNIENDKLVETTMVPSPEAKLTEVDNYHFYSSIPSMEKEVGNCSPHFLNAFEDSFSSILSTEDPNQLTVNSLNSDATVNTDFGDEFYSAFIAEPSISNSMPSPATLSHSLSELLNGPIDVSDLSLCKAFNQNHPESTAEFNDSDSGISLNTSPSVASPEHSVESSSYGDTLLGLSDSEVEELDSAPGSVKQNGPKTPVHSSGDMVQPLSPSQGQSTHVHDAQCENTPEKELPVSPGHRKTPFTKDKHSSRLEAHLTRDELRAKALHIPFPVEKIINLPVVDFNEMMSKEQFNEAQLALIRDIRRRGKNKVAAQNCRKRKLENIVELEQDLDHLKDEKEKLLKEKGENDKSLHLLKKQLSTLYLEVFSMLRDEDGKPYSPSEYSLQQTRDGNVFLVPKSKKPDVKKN
Sequence of Keap1/Nrf2 (Q14145 whole entry): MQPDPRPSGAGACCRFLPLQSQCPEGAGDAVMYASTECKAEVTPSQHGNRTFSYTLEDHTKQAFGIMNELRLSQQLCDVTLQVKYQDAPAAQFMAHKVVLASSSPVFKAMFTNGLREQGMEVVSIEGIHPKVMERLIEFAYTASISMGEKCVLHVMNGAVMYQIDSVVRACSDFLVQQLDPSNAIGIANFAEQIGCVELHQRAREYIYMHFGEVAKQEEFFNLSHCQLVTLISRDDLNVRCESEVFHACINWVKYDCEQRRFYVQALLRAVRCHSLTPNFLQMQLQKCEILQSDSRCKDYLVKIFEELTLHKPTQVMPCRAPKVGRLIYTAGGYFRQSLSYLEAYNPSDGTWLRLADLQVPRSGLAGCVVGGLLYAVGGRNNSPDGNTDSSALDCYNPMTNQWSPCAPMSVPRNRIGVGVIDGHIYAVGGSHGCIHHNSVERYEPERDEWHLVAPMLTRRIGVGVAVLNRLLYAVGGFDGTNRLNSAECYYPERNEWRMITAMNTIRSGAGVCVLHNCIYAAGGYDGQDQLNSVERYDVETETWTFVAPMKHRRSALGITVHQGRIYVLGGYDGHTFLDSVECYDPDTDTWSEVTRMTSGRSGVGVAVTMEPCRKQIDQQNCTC
Sequence of Bifunctional protein GlmU (P9WMN3 whole entry): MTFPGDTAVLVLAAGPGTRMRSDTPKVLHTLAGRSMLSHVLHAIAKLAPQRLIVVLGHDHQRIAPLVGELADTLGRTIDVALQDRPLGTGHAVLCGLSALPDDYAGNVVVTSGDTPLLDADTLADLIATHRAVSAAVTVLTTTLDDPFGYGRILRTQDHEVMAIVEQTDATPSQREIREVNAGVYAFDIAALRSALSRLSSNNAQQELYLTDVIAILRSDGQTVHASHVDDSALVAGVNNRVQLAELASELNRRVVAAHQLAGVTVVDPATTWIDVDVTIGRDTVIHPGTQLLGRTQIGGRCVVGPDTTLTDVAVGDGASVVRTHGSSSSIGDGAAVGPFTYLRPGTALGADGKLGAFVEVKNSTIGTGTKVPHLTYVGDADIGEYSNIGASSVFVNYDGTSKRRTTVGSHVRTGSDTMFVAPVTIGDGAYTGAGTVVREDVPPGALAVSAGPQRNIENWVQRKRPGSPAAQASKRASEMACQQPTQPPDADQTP
Sequence of E3 ubiquitin-protein ligase XIAP (P98170 whole entry): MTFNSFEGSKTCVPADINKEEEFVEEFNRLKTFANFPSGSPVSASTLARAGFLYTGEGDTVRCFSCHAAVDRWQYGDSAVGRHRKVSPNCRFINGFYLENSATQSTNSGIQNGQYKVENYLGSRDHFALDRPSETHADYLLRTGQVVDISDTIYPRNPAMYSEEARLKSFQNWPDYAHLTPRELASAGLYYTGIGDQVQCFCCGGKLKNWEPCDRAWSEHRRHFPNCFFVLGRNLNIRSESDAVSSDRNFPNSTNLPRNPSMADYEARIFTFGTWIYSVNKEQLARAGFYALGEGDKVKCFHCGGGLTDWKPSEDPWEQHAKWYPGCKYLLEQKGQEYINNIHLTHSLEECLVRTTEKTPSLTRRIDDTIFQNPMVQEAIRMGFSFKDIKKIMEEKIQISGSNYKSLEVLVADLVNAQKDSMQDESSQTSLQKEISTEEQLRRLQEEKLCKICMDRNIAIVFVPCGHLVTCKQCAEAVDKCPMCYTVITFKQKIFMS

COc1cc(/C=C2\COC/C(=C\c3cc(OC)c(OC)c(OC)c3)C2=O)cc(OC)c1OC
EC50 [1]: > 195 µM (not active)
AC50 [2]: 1.56 µM (active)
CC50 [3]: 2.07 µM (active)
EC50 [4]: 182 µM (active)

COC(=O)c1ccccc1NC(=O)c1sc(=S)n(C)c1N
IC50 [5]: 67.7 µM (active)
IC50 [6]: > 50 µM (inactive)
IC50 [7]: > 66.2 µM (inactive)
IC50 [8]: > 49.8 µM (inactive)
IC50 [9]: 1.41 µM (active)
IC50 [10]: 0.407 µM (active)
IC50 [11]: > 50 µM (not active)
IC50 [12]: 1.4 µM (active)

CC1=C(C#N)c2nc(N)c(C#N)c(C)c2/C1=C\c1ccc(-c2ccccc2C(=O)O)o1
IC50 [13]: 52.2 µM (active)
IC50 [14]: 70.3 µM (active)
IC50 [15]: 27.2 µM (active)
AC50 [16]: 15.3 µM (active)
IC50 [17]: > 20 µM (inactive)
IC50 [18]: 86.6 µM (active)
AC50 [19]: > 20 µM (inactive)

O=C(NCc1cccc(C(F)(F)F)c1)C1CCCN(c2ncccn2)C1 (stereo not given)
IC50 [20]: > 100 µM (not active)
